The values that follow come from paper PMC4457840, “Differential Inhibition of Signal Peptide Peptidase Family Members by Established γ-Secretase Inhibitors” (PLoS ONE, 2015).

“Also recorded” adds a separate entry of the source. Read-outs that look alike come from different tables or passages of the source. Numbered stars: 1 amine (or outer) side, 2 acyl side, 3 side chain; on linkers, the order of the positions; unused ones are H or OH. Square brackets hold non-standard residues; d marks the D form. Peptide text beside a SMILES is read from it. * marks the point of attachment. X1 = CC(N[*:1])C(=O)C(F)(F)C(=O)[*:2]; Boc = CC(C)(C)OC(=O)* Bounds are passed on as bounds.

One experiment concerns the target T1, SPPL2a (Homo sapiens, UniProt Q8TCT8).
T1 construct: expressed in transfected cells; host or cells: HEK 293T
T1 sequence (Q8TCT8 26-520): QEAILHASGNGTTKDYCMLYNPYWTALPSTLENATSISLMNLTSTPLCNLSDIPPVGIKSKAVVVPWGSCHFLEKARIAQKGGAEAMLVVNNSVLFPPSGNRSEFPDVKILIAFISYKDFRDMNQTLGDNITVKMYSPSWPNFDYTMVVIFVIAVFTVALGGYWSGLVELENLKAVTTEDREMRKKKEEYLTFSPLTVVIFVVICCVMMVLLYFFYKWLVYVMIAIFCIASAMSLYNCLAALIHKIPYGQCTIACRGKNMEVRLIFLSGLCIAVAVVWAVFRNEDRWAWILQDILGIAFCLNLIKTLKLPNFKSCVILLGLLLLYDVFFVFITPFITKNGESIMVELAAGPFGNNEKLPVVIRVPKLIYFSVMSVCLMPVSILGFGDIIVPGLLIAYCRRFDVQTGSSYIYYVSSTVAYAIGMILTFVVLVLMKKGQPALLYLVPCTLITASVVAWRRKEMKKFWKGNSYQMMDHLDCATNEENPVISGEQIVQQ
Briefly: FBA/SPPL2a co-transfected HEK 293T cell cleavage assay (Aβ ELISA, Western blot). The class given is cell-based. To be noted: for inhibition of xAβ1-25/K16A secretion (in words) / inhibition at 25 µM: 25 μM; for IC50: HEK cells, 24 h, xAβ1-25/K16A by Aβ ELISA, mean ± standard error, read-out: IC50 on FBA/SPPL co-transfected cells; for rank order of inhibition: number in parenthesis in Table 3; for inhibition at 25 µM: HEK-293T, DMSO = 100%, read-out: inhibition of the SPP/SPPLs. The text has this: (§1) Expression constructs in pcDNA6 for COOH-terminal FLAG (DYKDDDDK) and strep (WSHPQFEK) tagged SPPL2a, SPPL2b, hSPP and pSPP were generated as previously described. Untagged versions of all enzymes were also made and ligated into the pAG3 vector. Substrates (Fig 1) were designed as follows: FLAG-BRI2_1-81- Aβ1-25/K16A (FBA). The K16A mutation was incorporated to prevent potential α-secretase cleavage that would preclude ELISA based detection of the released COOH-terminal fragment. The substrate DNA was cloned into the expression vector pcDNA6. Constructs were confirmed by DNA sequencing. The overexpression of substrates was performed by transiently transfecting human embryonic kidney (HEK 293T) cells with or without SPP/SPPL vectors. Cells were grown in DMEM media supplemented with Hyclone 10% fetal bovine serum (GE, Logan, Utah, USA) and 1% penicillin/streptomycin (Life Technologies, Grand Island, NY, USA). Briefly, 2.7 μg DNA was applied to a 75% confluent 6 well plate (Corning, Tewksbury, MA, USA) using the polycation polyethylenimine (PEI) transfection method. Inhibitor testing experiments were conducted in 48 well plates with appropriately adjusted amounts of DNA and PEI and incubated 12–16 hours, after which the growth medium was replaced with fresh medium. DMSO (Sigma, St. Louis, MO, USA) and GSIs were added at the appropriate concentration. The GSIs, L685,458 and Compound W were purchased from Tocris (Tocris, Bristol, UK). (Z-LL)2 ketone, Compound E, DAPT, GSI II were purchased from Calbiochem (Merck Millipore, Billerica, MA, USA). LY-411,575 was synthesized by A. Fauq at the Mayo Clinic Chemical Core. Twenty-four hours later, the medium was collected for assay by ELISA and MS. A20 cells (TIB-208) (ATCC, Manassas, VA, USA) were cultured in RPMI-1640 medium (ATCC) supplied with 10% fetal bovine serum, 1% penicillin/streptomycin and 0.05 mM 2-mercaptoethanol (Life Technologies). At the density of 5x10^5 cells/ml, A20 cells were spun down at 1000 g for 2 min and resuspended in fresh medium supplied with DMSO or GSIs and incubated for 16 hr.
(§2) Sandwich ELISAs used for Aβ detection were performed as previously described. Briefly, Aβ and Aβ adducts with substrate TMD in conditioned media was captured with Ab5 antibody (human Aβ1–16 specific) and detected with horseradish peroxidase mAb 4G8 (Covance, Princeton, NJ, USA). Synthetic Aβ1–40 was used as standard. All ELISAs were developed with TMB substrate (KPL, Gaithersburg, Maryland, USA). Bis-Tris precast gels (Biorad, Hercules, CA, USA) were used for all SDS-PAGE. Monoclonal anti-FLAG M2 antibody (Sigma) and Aβ1–16 antibody 6E10 (Covance) were used for Western blotting. Antisera against SPPL2a, SPPL2b, hSPP and pSPP were generated as previously described and were used at dilution of 1:1000 for Western blotting. Anti-CD74 In-1 antibody (BD Bioscience, San Jose, CA, USA) was used for A20 cell lysate Western blotting at dilution of 1:1000.
In general terms: ELISA stands for enzyme-linked immunosorbent assay.

The target of another experiment is T2, hSPP (Homo sapiens, UniProt Q8TCT9).
T2 construct: expressed in transfected cells; host or cells: HEK 293T
T2 sequence (Q8TCT9 1-377): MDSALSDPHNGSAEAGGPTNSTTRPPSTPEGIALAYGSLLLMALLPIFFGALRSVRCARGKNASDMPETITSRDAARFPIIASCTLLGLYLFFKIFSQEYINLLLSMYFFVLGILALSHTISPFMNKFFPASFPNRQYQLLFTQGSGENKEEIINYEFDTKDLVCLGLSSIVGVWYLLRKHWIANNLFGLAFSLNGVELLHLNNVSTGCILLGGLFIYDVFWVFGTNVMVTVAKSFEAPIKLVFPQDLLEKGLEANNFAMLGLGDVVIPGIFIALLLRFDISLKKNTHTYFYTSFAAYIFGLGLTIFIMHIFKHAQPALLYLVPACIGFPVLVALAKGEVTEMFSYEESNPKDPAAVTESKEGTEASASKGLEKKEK
Kind of experiment: FBA/hSPP co-transfected HEK 293T cell cleavage assay (Aβ ELISA, Western blot, IP/MS). The class given is cell-based. To be noted: for inhibition of xAβ1-25/K16A secretion (in words) / inhibition at 25 µM: 25 μM, ELISA; for inhibition of FBA cleavage by Western blot: Fig 3C lower panel; for IC50: HEK cells, 24 h, xAβ1-25/K16A by Aβ ELISA, mean ± standard error, read-out: IC50 on FBA/SPPL co-transfected cells; for rank order of inhibition: number in parenthesis in Table 3; for inhibition at 25 µM: DMSO = 100%, read-out: inhibition of the SPP/SPPLs.
Text: as §1, §2
(§3) Immunoprecipitation and mass spectrometry of xAβ1–25 in conditioned media were performed as previously described. In this study, 10 ml conditioned media were used for each experiment. ICDs were immunoprecipitated with anti-FLAG M2 magnetic beads. Cells from 10 cm dished treated with DMSO or 20 μM LY-411,575 were used for each test.

The next experiment deals with pSPP (Plasmodium falciparum, UniProt Q8IKQ9). Kind of experiment: FBA/pSPP co-transfected HEK 293T cell cleavage assay (Aβ ELISA, Western blot, IP/MS). To be noted: for rank order of inhibition: number in parenthesis in Table 3; for inhibition at 25 µM: read-out: inhibition of the SPP/SPPLs. The class given is cell-based, human.
Chain of pSPP (Q8IKQ9 entry or part of it): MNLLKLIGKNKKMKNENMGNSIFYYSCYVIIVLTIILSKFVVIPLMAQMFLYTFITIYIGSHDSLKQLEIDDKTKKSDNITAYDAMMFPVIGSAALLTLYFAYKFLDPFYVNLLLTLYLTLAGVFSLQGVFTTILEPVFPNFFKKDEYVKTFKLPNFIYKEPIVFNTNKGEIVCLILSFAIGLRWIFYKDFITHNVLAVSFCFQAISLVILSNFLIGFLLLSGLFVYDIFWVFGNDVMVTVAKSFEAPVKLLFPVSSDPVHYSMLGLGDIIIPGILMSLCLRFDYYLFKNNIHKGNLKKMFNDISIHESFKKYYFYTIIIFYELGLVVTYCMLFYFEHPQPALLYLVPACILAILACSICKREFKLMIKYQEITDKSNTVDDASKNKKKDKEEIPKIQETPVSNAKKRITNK
Text: as §1, §2, §3

Where [1] appears, read: 10 μM, Western blot anti-FLAG M2.

For the compound `CC[C@H](C)[C@H](NC(=O)[C@@H](NC(=O)OC(C)(C)C)C(C)C)C(=O)NC(C)C(=O)C(F)(F)C(=O)N[C@H](C(=O)N[C@H](C(=O)OC)[C@@H](C)CC)C(C)C` (stereo partly shown) [GSI II] (Boc-VI[X1]VI-OMe), the “inhibition of xAβ1-25/K16A secretion (in words)” value (from here on “inhibition … (in words)”) is given as “efficiently inhibited; also recorded: largely inhibited” against SPPL2a (ELISA); “efficiently inhibited; also recorded: largely inhibited” against hSPP; “efficiently inhibited; also recorded: largely inhibited” against pSPP (pSPP, 25 μM, ELISA). Besides, the IC50 turned out to be 8800 ± 94 nM at SPPL2a, 423 ± 92 nM on hSPP and 427 ± 100 nM on pSPP. Also, the “rank order of inhibition” value on SPPL2a was 4; on hSPP it was 3; on pSPP (pSPP) it was 2. Besides, at hSPP, the “inhibition of FBA cleavage by Western blot” value (from here on “inhibition of FBA cleavage”) is given as “efficiently inhibited”.

Turning to `C[C@H](NC(=O)[C@@H](O)c1cc(F)cc(F)c1)C(=O)N[C@@H]1C(=O)N(C)c2ccccc2-c2ccccc21` [LY-411,575], the “inhibition … (in words)” value is “largely inhibited” at SPPL2a (ELISA); “largely inhibited” against hSPP; “largely inhibited” at pSPP (pSPP, 25 μM, ELISA). Moreover, the IC50 is 51 ± 79 nM at SPPL2a, 150 ± 106 nM on hSPP and 3480 ± 90 nM at pSPP. The inhibition at 25 µM on SPPL2a (ELISA), at hSPP (HEK-293T) and on pSPP (HEK-293T) was > 90% in each case. The “rank order of inhibition” value is given as 1 on SPPL2a, 1 at hSPP and 4 on pSPP (pSPP). Besides, the “cleavage products in conditioned media by IP/MS” value at hSPP (20 μM) is reported as “No major cleavage product was detected”; on pSPP (pSPP, 20 μM), “No major cleavage product was detected”. Further, the “inhibition of FBA cleavage” value on hSPP was “efficiently inhibited”.

For the compound `C[C@H](NC(=O)Cc1cc(F)cc(F)c1)C(=O)N[C@H]1N=C(c2ccccc2)c2ccccc2N(C)C1=O` [Compound E], the “inhibition of SPPL2a in dose response” value against SPPL2a (at the doses tested, ELISA) is reported as < 50%. Further, the “inhibition … (in words)” value was “inhibited; also recorded: selectively inhibit hSPP cleavage” against hSPP; “selectively inhibit hSPP” at hSPP (listed as Comp E); “did not show inhibition” on pSPP (pSPP, 25 μM, ELISA). At hSPP, the “inhibition of FBA cleavage” value was “efficiently inhibited”. Besides, the IC50 at hSPP turned out to be 1470 ± 93 nM.

Consider `CC(C)C[C@H](NC(=O)OCc1ccccc1)C(=O)N[C@@H](CC(C)C)C(=O)NCC(=O)CNC(=O)[C@H](CC(C)C)NC(=O)[C@H](CC(C)C)NC(=O)OCc1ccccc1` [(Z-LL)2 ketone], for which the “FBA cleavage by co-transfected SPPL (in words)” value was “largely inhibited” on SPPL2a (10 μM, Aβ ELISA, Fig 1D); “largely inhibited” on hSPP (10 μM, Aβ ELISA, Fig 1D); “largely inhibited” on pSPP (pSPP, 10 μM, Aβ ELISA, Fig 1D). The “generation of the SPP/SPPL dependent 10 kDa ICD” value at SPPL2a (setting [1]) is listed as “significantly reduced”; at hSPP (setting [1]) it was “significantly reduced”; at pSPP (pSPP, 10 μM, Western blot anti-FLAG M2), “significantly reduced”. For the same compound, the “inhibition … (in words)” value is recorded as “largely inhibited” at SPPL2a (ELISA); “largely inhibited” against hSPP; “largely inhibited” at pSPP (pSPP, 25 μM, ELISA). Besides, the results for the IC50 on SPPL2a, on hSPP and against pSPP were 177 ± 99 nM, 519 ± 97 nM and 472 ± 114 nM, respectively. For the same compound, the inhibition at 25 µM is > 90% at SPPL2a (ELISA); > 90% at hSPP (HEK-293T); > 90% on pSPP (HEK-293T, pSPP, 25 μM, ELISA, DMSO = 100%). For the same compound, the “rank order of inhibition” value worked out at 2 on SPPL2a, 4 on hSPP and 3 on pSPP (pSPP). For the same compound, the “inhibition of FBA cleavage” value on hSPP is “efficiently inhibited”. The inhibition at 10 µM was > 75% against hSPP (HEK-293T, 10 μM, overnight, Aβ ELISA) and > 75% at pSPP (HEK-293T, pSPP, 10 μM, overnight, Aβ ELISA).

With `C[C@H](NC(=O)Cc1cc(F)cc(F)c1)C(=O)NC(C(=O)OC(C)(C)C)c1ccccc1` (stereo partly shown) [DAPT], the “inhibition … (in words)” value is listed as “does not inhibit” at SPPL2a (ELISA); “does not inhibit” on hSPP; “does not inhibit” at pSPP (pSPP, 25 μM, ELISA).
